Results published in PubChem BioAssay AID330 (DTP/NCI, 2004).
Values joined by “and” are separate entries in the source; they are usually repeats but may differ in a detail not shown here. Identical values can stand only once. Toxic doses and inconclusive results are not listed. How the source made its calls: active means survival T/C of 150% or more; inactive means T/C below 125% in these data.

Tested on: P388 leukemia ip, CD2F1 mice, survival T/C
Assay: NCI In Vivo Anticancer Drug Screen. Data for tumor model P388 Leukemia (intraperitoneal) in CD2F1 (CDF1) mice
Details: endpoint: median survival time, higher = longer survival
Summary of the method: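 Mice carrying the transplanted tumor received test compound or vehicle. Survival was recorded in each group, and the value is the treated-group measurement divided by that of the vehicle-treated control group.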

[1] = dose: 60.0 mg/kg/injection, schedule: Q01DX005 (ip), vehicle: saline with Tween-80
[2] = dose: 120.0 mg/kg/injection, schedule: Q01DX005 (ip), vehicle: saline with Tween-80
[3] = dose: 240.0 mg/kg/injection, schedule: Q01DX005 (ip), vehicle: saline with Tween-80
[4] = dose: 50.0 mg/kg/injection, schedule: Q01DX005 (ip), vehicle: saline with Tween-80
[5] = dose: 100.0 mg/kg/injection, schedule: Q01DX005 (ip), vehicle: saline with Tween-80
[6] = dose: 200.0 mg/kg/injection, schedule: Q01DX005 (ip), vehicle: saline with Tween-80
[7] = dose: 50.0 mg/kg/injection, schedule: Q01DX005 (ip), vehicle: saline
[8] = dose: 60.0 mg/kg/injection, schedule: Q01DX005 (ip), vehicle: Klucel (hydroxypropylcellulose) (HPC)
[9] = dose: 120.0 mg/kg/injection, schedule: Q01DX005 (ip), vehicle: Klucel (hydroxypropylcellulose) (HPC)
[10] = dose: 240.0 mg/kg/injection, schedule: Q01DX005 (ip), vehicle: Klucel (hydroxypropylcellulose) (HPC)
[11] = dose: 60.0 mg/kg/injection, schedule: Q01DX005 (ip), vehicle: saline
[12] = dose: 120.0 mg/kg/injection, schedule: Q01DX005 (ip), vehicle: saline
[13] = dose: 240.0 mg/kg/injection, schedule: Q01DX005 (ip), vehicle: saline
[14] = dose: 100.0 mg/kg/injection, schedule: Q01DX009 (ip), vehicle: saline with Tween-80
[15] = dose: 200.0 mg/kg/injection, schedule: Q01DX009 (ip), vehicle: saline with Tween-80
[16] = dose: 50.0 mg/kg/injection, schedule: Q01DX009 (ip), vehicle: Klucel (hydroxypropylcellulose) (HPC)
[17] = dose: 100.0 mg/kg/injection, schedule: Q04DX003 (ip), vehicle: saline with Tween-80
[18] = dose: 200.0 mg/kg/injection, schedule: Q04DX003 (ip), vehicle: saline with Tween-80
[19] = dose: 400.0 mg/kg/injection, schedule: Q04DX003 (ip), vehicle: saline with Tween-80
[20] = dose: 100.0 mg/kg/injection, schedule: Q04DX003 (ip), vehicle: saline
[21] = dose: 200.0 mg/kg/injection, schedule: Q04DX003 (ip), vehicle: saline
[22] = dose: 400.0 mg/kg/injection, schedule: Q04DX003 (ip), vehicle: saline

Measured: T/C

CC(C)C1CCC2(C)OC2C1=O (configuration not stated)
inactive: dose: 25.0 mg/kg/injection, schedule: Q04DX002 (ip), vehicle: saline 100 % of control | dose: 50.0 mg/kg/injection, schedule: Q04DX002 (ip), vehicle: saline 98 % of control | dose: 100.0 mg/kg/injection, schedule: Q04DX002 (ip), vehicle: saline 100 % of control and 101 % of control | dose: 200.0 mg/kg/injection, schedule: Q04DX002 (ip), vehicle: saline 100 % of control | dose: 400.0 mg/kg/injection, schedule: Q04DX002 (ip), vehicle: saline 112 % of control

CCOC(=O)c1cn(C(=O)CCl)c2ccccc2c1=O
inactive: [1] 103 % of control | [2] 100 % of control | [3] 97 % of control

Clc1nc2nc(Cl)c(Cl)n2c(Cl)c1Cl
inactive: dose: 100.0 mg/kg/injection, schedule: Q04DX002 (ip), vehicle: saline with Tween-80 105 % of control | dose: 200.0 mg/kg/injection, schedule: Q04DX002 (ip), vehicle: saline with Tween-80 117 % of control

CCCCCCCCCCCCCCCCCCOCC(CO)OC (configuration not stated)
inactive: [4] 101 % of control and 115 % of control | [5] 115 % of control and 123 % of control | [6] 123 % of control | dose: 400.0 mg/kg/injection, schedule: Q01DX005 (ip), vehicle: saline with Tween-80 97 % of control

O=C1C=CC(=O)c2cc(Cl)c(Cl)cc21
inactive: dose: 4.12 mg/kg/injection, schedule: Q01DX009 (ip), vehicle: saline with Tween-80 109 % of control | dose: 6.25 mg/kg/injection, schedule: Q01DX009 (ip), vehicle: saline with Tween-80 113 % of control | dose: 6.25 mg/kg/injection, schedule: Q04DX003 (ip), vehicle: saline with Tween-80 91 % of control | dose: 12.5 mg/kg/injection, schedule: Q04DX003 (ip), vehicle: saline with Tween-80 91 % of control

COCC1(O)C=CC(=O)O1 (configuration not stated)
inactive: [7] 105 % of control

[N-]=[N+]=Nc1ccnc2c(C(F)(F)F)cccc12
inactive: [1] 108 % of control | [2] 100 % of control | [3] 92 % of control

CC1=C(C)C(N(C)C)CS(=O)(=O)O1 (configuration not stated)
inactive: dose: 50.0 mg/kg/injection, schedule: Q01DX005 (ip), vehicle: Klucel (hydroxypropylcellulose) (HPC) 99 % of control | dose: 100.0 mg/kg/injection, schedule: Q01DX005 (ip), vehicle: Klucel (hydroxypropylcellulose) (HPC) 104 % of control

C=CCN(CC=C)Sc1cccc([N+](=O)[O-])c1
inactive: dose: 50.0 mg/kg/injection, schedule: Q01DX009 (ip), vehicle: saline 109 % of control | dose: 100.0 mg/kg/injection, schedule: Q01DX009 (ip), vehicle: saline 117 % of control

CCOC(=O)C1=C(C(=O)c2cccc3ccccc23)C(c2ccc([N+](=O)[O-])cc2)C(C(=O)c2cccc3ccccc23)=C(C(=O)OCC)N1
inactive: [8] 87 % of control and 88 % of control | [9] 87 % of control | [10] 86 % of control and 95 % of control

OCCC(CCN1CCOCC1)(c1ccccc1)C1(O)CCCC1 (configuration not stated)
inactive: [11] 95 % of control | [12] 98 % of control | [13] 92 % of control

c1ccc2cc(-c3nc4cccc5c4n3CCC5)ccc2c1
inactive: [14] 105 % of control | [15] 95 % of control | dose: 400.0 mg/kg/injection, schedule: Q01DX009 (ip), vehicle: saline with Tween-80 115 % of control

CC(C)=CCC/C(C)=C/COc1ccc(/C=C2/C(=O)N(O)[C@@H](C)C(=O)N2O)cc1
inactive: dose: 6.25 mg/kg/injection, schedule: Q01DX009 (ip), vehicle: saline 123 % of control and 97 % of control | dose: 12.5 mg/kg/injection, schedule: Q01DX009 (ip), vehicle: saline 99 % of control | dose: 25.0 mg/kg/injection, schedule: Q01DX009 (ip), vehicle: saline 108 % of control

CSc1nc(=O)[nH]nc1SCc1ccccc1
inactive: [16] 114 % of control and 120 % of control | dose: 100.0 mg/kg/injection, schedule: Q01DX009 (ip), vehicle: Klucel (hydroxypropylcellulose) (HPC) 101 % of control and 111 % of control | dose: 200.0 mg/kg/injection, schedule: Q01DX009 (ip), vehicle: Klucel (hydroxypropylcellulose) (HPC) 108 % of control and 120 % of control

O=C(COc1ccc(Cl)cc1Cl)Nc1ccccc1F
inactive: [17] 100 % of control | [18] 100 % of control | [19] 100 % of control

CC(=O)OCC1OC(n2cnc3c(=S)nc[nH]c32)C(OC(C)=O)C1OC(C)=O (configuration not stated)
inactive: [17] 109 % of control | [18] 109 % of control | [19] 118 % of control

O=P1(NCCCNP2(=O)OC(CCl)=NC2c2ccccc2Cl)OC(CCl)=NC1c1ccccc1Cl (configuration not stated)
inactive: [11] 93 % of control | [12] 98 % of control | [13] 103 % of control

CCCCCCCC#CC(=O)O
inactive: dose: 50.0 mg/kg/injection, schedule: Q01DX009 (ip), vehicle: saline with Tween-80 88 % of control | [14] 89 % of control | [15] 86 % of control

CCOC(=O)c1ccc(NC(=O)Nc2n[nH]c(NC(=O)Nc3ccc(C(=O)OCC)cc3)n2)cc1
inactive: dose: 12.5 mg/kg/injection, schedule: Q01DX009 (ip), vehicle: distilled water + Tween-80 95 % of control | dose: 25.0 mg/kg/injection, schedule: Q01DX009 (ip), vehicle: distilled water + Tween-80 114 % of control | dose: 50.0 mg/kg/injection, schedule: Q01DX009 (ip), vehicle: distilled water + Tween-80 89 % of control | dose: 100.0 mg/kg/injection, schedule: Q01DX009 (ip), vehicle: distilled water + Tween-80 88 % of control

CN(CCN1C(=O)c2cccc3cccc(c23)C1=O)CCN1C(=O)c2cccc3cccc(c23)C1=O
inactive: [4] 95 % of control | [1] 95 % of control | [5] 87 % of control | [6] 91 % of control | [3] 88 % of control

Cc1ccc(C(=O)C[n+]2ccccc2)c(O)c1
inactive: [1] 98 % of control | [2] 100 % of control

Cn1c2c(c3ccccc3c1=O)C(=O)c1cccnc1-2
inactive: [7] 102 % of control | dose: 100.0 mg/kg/injection, schedule: Q01DX005 (ip), vehicle: saline 97 % of control | dose: 200.0 mg/kg/injection, schedule: Q01DX005 (ip), vehicle: saline 105 % of control

Cc1cccc2nnc(CCCc3nnc4cccc(C)n34)n12
inactive: [17] 98 % of control | [18] 97 % of control | [19] 96 % of control

CC(=O)Sc1nnc2c3ccccc3n(C(C)=O)c2n1
inactive: [20] 99 % of control | [21] 97 % of control | [22] 105 % of control

CC(=O)/C=C1\C(=O)OCC1(C)C
inactive: [20] 105 % of control | [21] 108 % of control | [22] 111 % of control

O=C1c2cccc3cc([N+](=O)[O-])cc(c23)C(=O)N1CCCN(CCO)CCO
inactive: dose: 25.0 mg/kg/injection, schedule: Q01DX005 (ip), vehicle: saline with Tween-80 105 % of control | [4] 107 % of control | [5] 108 % of control and 121 % of control

NNC(=O)c1cc2c3ccccc3ncc2c2ccccc12
inactive: dose: 100.0 mg/kg/injection, schedule: Q01DX001 (ip), vehicle: saline with Tween-80 86 % of control | dose: 200.0 mg/kg/injection, schedule: Q01DX001 (ip), vehicle: saline with Tween-80 95 % of control | dose: 400.0 mg/kg/injection, schedule: Q01DX001 (ip), vehicle: saline with Tween-80 113 % of control

O=C1c2ccccc2C(=O)c2c(-c3ccccc3)ccc(-c3ccccc3)c21
inactive: [4] 93 % of control | [5] 99 % of control | [6] 87 % of control

COc1ccc2c(c1)SC1=NNC(=O)CN12
inactive: [8] 89 % of control | [9] 89 % of control | [10] 91 % of control

COc1cccc(C=Nc2ccccc2O)c1O.[O]=[V]
inactive: dose: 6.25 mg/kg/injection, schedule: Q01DX009 (ip), vehicle: Klucel (hydroxypropylcellulose) (HPC) 98 % of control and 107 % of control | dose: 12.5 mg/kg/injection, schedule: Q01DX009 (ip), vehicle: Klucel (hydroxypropylcellulose) (HPC) 106 % of control and 115 % of control | dose: 25.0 mg/kg/injection, schedule: Q01DX009 (ip), vehicle: Klucel (hydroxypropylcellulose) (HPC) 100 % of control and 118 % of control | [16] 91 % of control
